# Article PMC4801207, “Characterisation of Signalling by the Endogenous GPER1 (GPR30) Receptor in an Embryonic Mouse Hippocampal Cell Line (mHippoE-18)” (PLoS ONE, 2016)
# Molecular target: T1, GPER1 (GPR30) (Mus musculus, UniProt Q8BMP4)
# T1 construct: full-length endogenous receptor, native in mHippoE-18 immortalized embryonic mouse hippocampal cell line (CELLutions Biosystems); cells also express moderate ERalpha and ERbeta
# T1 sequence (Q8BMP4 1-375): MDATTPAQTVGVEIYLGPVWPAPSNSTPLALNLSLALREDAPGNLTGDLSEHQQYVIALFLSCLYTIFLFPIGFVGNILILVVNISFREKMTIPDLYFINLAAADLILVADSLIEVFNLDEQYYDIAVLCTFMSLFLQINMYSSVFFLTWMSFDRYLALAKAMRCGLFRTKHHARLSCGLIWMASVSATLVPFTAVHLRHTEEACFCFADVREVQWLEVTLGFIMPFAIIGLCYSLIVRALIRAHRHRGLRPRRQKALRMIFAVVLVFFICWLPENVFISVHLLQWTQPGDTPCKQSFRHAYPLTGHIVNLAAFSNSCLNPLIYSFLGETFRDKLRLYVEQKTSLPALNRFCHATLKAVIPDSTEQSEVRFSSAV
# Assay: cAMP accumulation, radiometric PKA binding assay, mHippoE-18 cells
# Format: cell-based
# Details: agonist; potentiation of 10 μM forskolin-stimulated cAMP, 100 μM IBMX, 20 min; endogenous receptor, no antagonist
row,Structure (SMILES),EC50 [nM]
1,CC(=O)c1ccc2c(c1)[C@H]1C=CC[C@H]1[C@@H](c1cc3c(cc1Br)OCO3)N2 (racemic) [G1],0.52
2,C[C@]12CC[C@@H]3c4ccc(O)cc4CC[C@H]3[C@@H]1CC[C@@H]2O [17β-Estradiol],1.1
3,"C[C@]12CC[C@@H]3c4ccc(O)cc4C[C@@H](CCCCCCCCC[S+]([O-])CCCC(F)(F)C(F)(F)F)[C@H]3[C@@H]1CC[C@@H]2O (stereo partly drawn) [ICI 182,780, 7α, 17β-[9-[(4,4,5,5,5-Pentafluoropentyl)sulfinyl]nonyl]estra-1,3,5(10)-triene-3,17-diol]",3.6
